Laboratory results reported in publication PMC10354055, “An optimized Nurr1 agonist provides disease-modifying effects in Parkinson’s disease models” (Nature Communications, 2023).
Several values for one entry are separate records, joined by “and”; a condition that tells them apart may be missing. Equal entries are not always repeated. Where two headings read alike, the source gives them in different places.

Tests used:
[1] = test system: AAV-αSyn-induced male mice; test: Dopamine ELISA in SN and STR, AAV-αSyn-injected mice; format: in vivo, mouse; settings: for DA levels in the SN and STR (in words): αSynWT-mice
From the text: Adeno-associated viruses (AAVs) expressing GFP only or αSyn (wild-type or A53T) were kindly provided by Dr. Yoon Seong Kim from the University of Central Florida. Recombinant AAV vectors were produced using modified pAAV-IRES-hrGFP (Agilent) to express wild-type and mutant human αSyn under control of the CMV promoter. Viral particles (AAV2) were produced at the University of Iowa Viral Vector Core according to standard operating procedures (https://medicine.uiowa.edu/vectorcore/). […] AAV vectors were delivered into the substantia nigra unilaterally by stereotaxic surgery.
For MPTP-induced mice, the left hemisphere of each group (n = 5) was used for analysis and compared to the vehicle-treated group (VEH). For AAV-αSyn-injected mouse model, the viral vector injected side (left hemisphere; ipsilateral) of each group (n = 3) was compared to the non-injected side (right hemisphere; contralateral).

[2] = test system: MPTP-induced male mice; test: Rotarod, sub-chronic MPTP-induced PD model mice; format: in vivo, mouse; settings: for Latency to fall: Figure 4b, MPTP-induced mice, individual animal values
Experimental: MPTP (Sigma-Aldrich) was intraperitoneally (i.p.) injected (30 mg/kg) for 5 days (Day 1-5). […] To test dyskinetic involuntary behavior, an L-DOPA injected group was included, which received 50 mg/kg of L-DOPA and 15 mg/kg of benserazide (Sigma-Aldrich) (i.p.) for 16 days (Day 1–16). All compounds were administered 6 h post-MPTP injection to avoid any effect of compounds on the MPTP metabolism in the brain. Motor and non-motor related behavior tests were performed on the following days as described in Fig. 4a in an assessor- and observer-blinded fashion. Pre-training and baseline setup for motor-related behaviors were performed 3 days prior to the injections. Mice were sacrificed and subjected to immunohistochemistry. Mice were housed at the Animal Care Facilities of McLean Hospital under a 12-h light/12-h dark cycle, ambient temperature and humidity. Animals were handled in accordance with McLean Hospital’s Institutional Animal Care and Use Committee (Protocol #: 2015N000002) and followed National Institutes of Health guidelines.
Mice were pre-trained on an automated 5-lane rotarod unit (10 rpm, 3 min) for 2 days and the baseline was measured (10 rpm, 90 sec) before the rotarod test (3 days before the MPTP injection or the first rotarod test at week 2). Rotarod measurements were performed using an accelerating protocol, accelerated smoothly from 2 to 30 rpm for 5 min. Time on the rotating rod was measured automatically by placing a trip switch under the floor beneath the rotating drum.

[3] = test system: N27-A cells; settings: for LDH release (%): Fig. 2b, MPP+, CQ 100 µM, 4A7C-301 1 µM; for MPP+-induced cytotoxicity (in words): N27-A and MN9D cells, dose-dependent
Experimental: SK-N-BE(2)C human neuroblastoma, BV2 mouse microglia (ATCC), HeLa and MN9D cell lines were cultured in Dulbecco’s Modified Eagle Medium (DMEM) supplemented with 10% fetal bovine serum (FBS) and 100 U /ml penicillin and 100 μg /ml streptomycin. The murine MN9D dopaminergic cell line was kindly provided by Drs. Michael Zigmond and Juliann Jaumotte from the University of Pittsburgh. The N27-A rat dopaminergic cell line was kindly provided by Dr. Curt Freed from the University of Colorado School of Medicine. […] For transactivity assay, SK-N-BE(2)C and N27-A cell lines were transfected with pCMV-fNurr1, pGAL-Nurr1(LBD), pGAL-Nor1(LBD) or pGAL-Nur77(LBD) and reporter construct (p4xNL3-Luc for fNurr1 or p8xUAS-Luc for LBD constructs). pRSV-β-gal was co-transfected as an internal control. Cells were lysed in a lysis buffer (25 mM Tris-phosphate (pH 7.8), 2 mM DTT, 2 mM DCTA (1,2-diaminocyclohexane-N,N,N′,N′-tetraacetic acid), 10% glycerol, and 1% Triton X-100) 24 h after transfection, followed by adding firefly luciferase substrate for luminescence detection measured by a luminometer plate reader (SpectraMax®; Molecular device). Nurr1 transactivity was normalized to β-galactosidase activity. […] For Nurr1 stability determination, MN9D cells were incubated with MPP^+ (0.5 mM) for 2, 4, 8, 16, 24, and 32 h, or were transduced with lentivirus expressing GFP only or αSyn (wild-type or A53T) then harvested 24, 48 and 72 h after transduction. For autophagolysosome (APL) formation assay, HeLa and N27-A cells were transfected with mRFP-GFP-LC3 (Addgene) using Lipofectamine 2000 (Invitrogen). The medium was changed with starvation medium (Earle’s Balanced Salt Solution; EBSS) 24 h after transfection for autophagy induction.
Cells were transfected with Nurr1 subcloned into pcDNA3.1 vector[23] for Nurr1 overexpression (OE). […] Nurr1 OE or KD by transfection was analyzed by Western blot.
Cellular oxidative stress was detected using the DCFDA Cellular ROS Assay Kit (Abcam) according to the manufacturer’s protocol. Briefly, cells seeded in black clear bottom 96 well plate were stained with DCFDA solution (20 µM) for 45 min at 37 °C. […] Cytotoxicity was determined by measuring lactate dehydrogenase (LDH) release into the culture medium using a LDH cytotoxicity detection kit (Roche)[33]. Absorbance was measured at 490 nm with a microplate reader and cytotoxicity was calculated as a percentage (%) relative to 1% TritonX-100 control. Cell viability was determined using 3-(4,5-dimethylthiazol-2-yl)-2,5-diphenyltetrazolium bromide (MTT) as previously described. Briefly, cells were incubated with 5 mg/ml of MTT (Sigma-Aldrich) solution for 3.5 h at 37 °C. MTT formazan crystals were dissolved in 10 times the volume of MTT solvent (4 mM HCl and 0.1% Nonidet P-40 in isopropanol) and the absorbance from the generated blue formazan was measured at 570 nm after 15 min incubation at room temperature. Cell viability was calculated as a percentage (%) of MTT reduction relative to vehicle control.

[4] = molecular target: T1, Nurr1-LBD (Mus musculus, UniProt Q06219); test: Luciferase reporter assay, Nurr1-LBD, N27-A cells; format: cell-based; settings: for EC50: Supplementary Fig. 1d,e
T1 construct: transfected with pCMV-fNurr1, pGAL-Nurr1(LBD), pGAL-Nor1(LBD) or pGAL-Nur77(LBD) and reporter construct; expressed in transfected cells; host or cells: SK-N-BE(2)C (human neuroblastoma), N27-A (rat dopaminergic), MN9D (murine dopaminergic)
From the text: Nurr1 transactivity was normalized to β-galactosidase activity.

[5] = test system: N27-A cells; test: Cellular oxidative stress, DCFDA ROS assay, N27-A cells; format: cell-based, rat; settings: for MPP+-induced ROS levels (in words): CQ 100 µM, 4A7C-301 1 µM; for ROS intensity (fold of control): Fig. S1i, with MPP+, replicates
[6] = Supplementary Figure S10e, αSynA53T
[7] = Supplementary Figure S10e, αSynWT
[8] = Supplementary Figure S10f, αSynA53T
[9] = Supplementary Figure S10f, αSynWT

T1 sequence (Q06219 360-595 limits assumed): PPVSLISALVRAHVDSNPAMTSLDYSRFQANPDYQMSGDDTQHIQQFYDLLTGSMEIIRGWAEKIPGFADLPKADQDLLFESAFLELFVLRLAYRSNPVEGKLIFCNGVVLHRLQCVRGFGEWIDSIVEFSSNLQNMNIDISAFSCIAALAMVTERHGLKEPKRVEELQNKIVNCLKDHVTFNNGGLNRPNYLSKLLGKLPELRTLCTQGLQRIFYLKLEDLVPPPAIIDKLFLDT

SMILES | DA level (% of contralateral side) [1, 6] | DA level (% of contralateral side) [1, 7] | DA level (% of contralateral side) [1, 8] | DA level (% of contralateral side) [1, 9] | DA levels (in words) ([1]; αSynA53T-mice) | DA levels in the SN and STR (in words) [1] | motor function, rotarod (in words) ([2]; CQ 40, 4A7C-301 5, L-DOPA 50 mg/kg/day, i.p., 16 days) | Latency to fall [2] | LDH release (%) ([3]; Control) | LDH release (%) ([3]; Nurr1 KD) | LDH release (%) ([3]; Nurr1 OE) | MPP+-induced cytotoxicity (in words) [3] | concentration of maximal efficiency, times lower than CQ ([3]; N27-A cells, MPP+-induced cytotoxicity) | potency relative to CQ [4] | EC50 [4] | MPP+-induced ROS levels (in words) [5] | ROS intensity (fold of control) ([5]; Control cells) | ROS intensity (fold of control) ([5]; Nurr1 KD cells) | ROS intensity (fold of control) ([5]; Nurr1 OE cells)
CCN1CCN(c2cc(N3CCN(CC)CC3)nc(NCCNc3ccnc4cc(Cl)ccc34)n2)CC1 [4A7C-301, N^1-(4,6-bis(4-ethylpiperazin-1-yl)pyrimidin-2-yl)-N^2-(7-chloroquinolin-4-yl)ethane-1,2-diamine] | 52.259 % of contralateral side and 51.869 % of contralateral side and 51.727 % of contralateral side | 78.777 % of contralateral side and 81.036 % of contralateral side and 79.879 % of contralateral side | 55.117 % of contralateral side and 54.305 % of contralateral side and 55.007 % of contralateral side | 77.063 % of contralateral side and 74.376 % of contralateral side and 74.108 % of contralateral side | increased | significantly increased | significantly rescued | 133.23 s and 202.2 s and 133.57 s and 139.3 s and 213.2 s and 211.5 s and 122.9 s and 231.93 s | 36.8915% and 36.4082% and 36.6047% and 36.8443% | 55.7866% and 55.7395% and 55.4251% and 55.8102% | 22.7388% and 23.725% and 22.6956% and 22.8802% | significantly decreased | ~ 20 times | approximately 50 times | ~0.2 µM | significantly reduced | 1.457 fold of control and 1.389 fold of control and 1.394 fold of control | 2.059 fold of control and 2.042 fold of control and 2.017 fold of control | 0.87 fold of control and 0.894 fold of control and 0.877 fold of control
CCN(CC)CCCC(C)Nc1ccnc2cc(Cl)ccc12 (stereo not shown) [CQ, chloroquine] | 32.648 % of contralateral side and 32.350 % of contralateral side and 33.119 % of contralateral side | 73.112 % of contralateral side and 72.962 % of contralateral side and 71.012 % of contralateral side | 33.096 % of contralateral side and 33.011 % of contralateral side and 33.320 % of contralateral side | 70.155 % of contralateral side and 68.851 % of contralateral side and 68.899 % of contralateral side |  | significantly increased |  | 188.53 s and 158.67 s and 132.1 s and 179.3 s and 127.13 s and 200.87 s and 173.6 s and 164.1 s | 38.0191% and 38.0584% and 38.4906% and 38.2156% | 55.7041% and 55.6609% and 55.7395% and 55.7788% | 24% and 23.9568% and 23.9529% and 23.9254% | significantly decreased |  |  | ~10 µM | significantly reduced |  |  | 
